Legend:
[1] = biological target: T1, recombinant human secretory phospholipase A2 (Homo sapiens, UniProt P14555); test: Inhibition Test of Human Secretory Phospholipase A2 (chromogenic assay); format: biochemical; settings: sPLA2 50 ng/well, 40° C., 30 minutes, OD 405 nm, 96 well microtiterplate
T1 sequence (P14555 21-144): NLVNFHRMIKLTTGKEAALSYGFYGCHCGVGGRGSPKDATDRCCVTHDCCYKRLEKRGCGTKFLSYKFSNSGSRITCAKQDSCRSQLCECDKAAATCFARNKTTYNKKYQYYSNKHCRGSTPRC
From the text: Test Example: Inhibition Test of Human Secretory Phospholipase A2
In order to identify and evaluate an inhibitor of recombinant human secretory phospholipase A2, the following chromogenic assay is utilized. The assay herein has been applied for high volume screening wherein 96 well microtiterplate is used. A general explanation for such assay is described in “Analysis of Human Synovial Fluid Phospholipase A2 on Short Chain Phosphatidylcholine-Mixed Micelles: Development of a Spectrophotometric Assay Suitable for a Micortiterplate Reader” (Analytical Biochemistry, 204, pp 190-197, 1992 by Laure. J. Reynolds. Lori L. Hughes and Edward A. Dennis: the disclosure of which is incorporated herein for reference.
pH 7.5 (adjusted with NaOH)
pH 4.5 (adjusted with acetic acid)
1 mg of sPLA2 is dissolved in 1 ml of an enzyme buffer. Thereafter, the solution is maintained at 4° C.
In the assay, 5 μl of the solution is diluted with 1995 μl of the reaction buffer to be used.
198 mg of 5,5′-dithiobis-2-[…] (manufactured by Wako Pure Chemicals) is dissolved in 100 ml of H2O
H 7.5 (adjusted with NaOH)
100 mg of racemic 1,2-bis(heptanoylthio)-1,2-dideoxy-sn-glycero-3-phospholylcholine is dissolved in 1 ml of chloroform.
624.9 mg of Triton-X 100 is dissolved in the reaction buffer.
Enzyme Reaction: for 1 Plate of Microtiterplate
1) 0.106 ml of the substrate solution is put in a centrifugal tube, and nitrogen gas is jetted to remove the solvent. 0.54 ml of Triton-X 100 is added thereto, the mixture is stirred, thereafter it is sonified in a bath type sonification to dissolve. To the resulting product are added 17.8 ml of the reaction buffer and 0.46 ml of DTNB, and 0.18 ml each of the admixture is poured to wells of the 96 well microtiterplate.
2) 10 μl of a test compound (or solvent blank) are added in accordance with alignment of plates which has been previously set.
3) Incubation is effected at 40° C. for 15 minutes.
4) 20μl of an enzyme solution (sPLA2) which has been previously diluted (50 ng/well) are added to start reaction (40° C., 30 minutes).
5) Changes in absorbancy for 30 minutes are measured by a plate reader, and inhibition activity was calculated (OD: 405 nm).
6) IC50 was determined by plotting log concentration with respect to inhibition values within 10% to 90% inhibiting range.

SMILES	melting point	IC50 [1]
CCc1c(C(=O)C(N)=O)c2c(OCC(=O)OC)nc(C)cn2c1Cc1ccc(OC)cc1 [Compound I-33]	189 to 190 °C	0.703 µM
CCc1c(C(=O)C(N)=O)c2c(OCC(=O)O)nc(C)cn2c1Cc1ccc(OC)cc1 [Compound I-34]	200 to 201.5 °C	0.026 µM
CCc1c(C(=O)C(N)=O)c2c(OCC(=O)OC)nc(C)cn2c1Cc1cccc(F)c1 [Compound I-35]	179.5 to 181 °C	0.182 µM
CCc1c(C(=O)C(N)=O)c2c(OCC(=O)O)nc(C)cn2c1Cc1cccc(F)c1 [Compound I-36]	190.5 to 193 °C	0.011 µM
CCc1c(C(=O)C(N)=O)c2c(OCC(=O)OC)nc(CO)cn2c1Cc1ccccc1 [Compound I-37]	201 to 202 °C	0.726 µM
CCc1c(C(=O)C(N)=O)c2c(OCC(=O)O)nc(CO)cn2c1Cc1ccccc1 [Compound I-38]	211 to 212 °C	0.033 µM
CCc1c(C(=O)C(N)=O)c2c(OCC(=O)OC)nc(C(C)C)cn2c1Cc1ccccc1 [Compound I-39]	190 to 191 °C	0.151 µM
CCc1c(C(=O)C(N)=O)c2c(OCC(=O)O)nc(C(C)C)cn2c1Cc1ccccc1 [Compound I-40]	211 to 213 °C	0.012 µM
CCc1cn2c(Cc3ccccc3)c(CC)c(C(=O)C(N)=O)c2c(OCC(=O)OC)n1 [Compound I-41]	154 to 156 °C	0.107 µM
CCc1cn2c(Cc3ccccc3)c(CC)c(C(=O)C(N)=O)c2c(OCC(=O)O)n1 [Compound I-42]	197 to 198 °C	0.01 µM
CCc1c(C(=O)C(N)=O)c2c(OCC(=O)OC)nc(-c3ccccc3)cn2c1Cc1ccccc1 [Compound I-43]	203 to 205 °C	0.041 µM
CCc1c(C(=O)C(N)=O)c2c(OCC(=O)O)nc(-c3ccccc3)cn2c1Cc1ccccc1 [Compound I-44]	233 to 234 °C	0.007 µM
CCc1c(C(=O)C(N)=O)c2c(OCC(=O)OC)nc(CC(C)C)cn2c1Cc1ccccc1 [Compound I-45]	129 to 130 °C	0.117 µM
CCc1c(C(=O)C(N)=O)c2c(OCC(=O)O)nc(CC(C)C)cn2c1Cc1ccccc1 [Compound I-46]	216 to 217 °C	0.01 µM
CCc1c(C(=O)C(N)=O)c2c(OCC(=O)OC)nc(Cc3ccccc3)cn2c1Cc1ccccc1 [Compound I-49]	178 to 180 °C	0.211 µM
CCc1c(C(=O)C(N)=O)c2c(OCC(=O)O)nc(Cc3ccccc3)cn2c1Cc1ccccc1 [Compound I-50]	200 to 202 °C	0.017 µM
CCc1c(C(=O)C(N)=O)c2c(OCC(=O)OC)nc(C)cn2c1Cc1ccccc1-c1cccs1 [Compound I-51]	134.5 to 136 °C	0.061 µM
CCc1c(C(=O)C(N)=O)c2c(OCC(=O)OC)nc(C)cn2c1Cc1ccccc1C#Cc1ccccc1 [Compound I-53]	147 to 149 °C	0.059 µM
CCc1c(C(=O)C(N)=O)c2c(OCC(=O)OC)nc(C)cn2c1Cc1ccccc1Oc1ccccc1 [Compound I-55]	161 to 163 °C	0.032 µM
CCc1c(C(=O)C(N)=O)c2c(OCC(=O)O)nc(C)cn2c1Cc1ccccc1Oc1ccccc1 [Compound I-56, [7-Ethyl-3-methyl-8-oxamoyl-6-(2-phenyloxybenzyl)pyrrolo [1,2-a]pyrazin-1-yl]oxyacetic acid]	208 to 210 °C	0.006 µM
CCc1c(C(=O)C(N)=O)c2c(OCC(=O)OC)nc(C)cn2c1Cc1cccc(-c2ccc(C)s2)c1 [Compound I-63]	179.5 to 181 °C	0.057 µM
CCc1c(C(=O)C(N)=O)c2c(OCC(=O)O)nc(C)cn2c1Cc1cccc(-c2ccc(C)s2)c1 [Compound I-64]	190.5 to 193 °C	0.006 µM
CCc1c(C(=O)C(N)=O)c2c(OCC(=O)OC)nc(C)cn2c1Cc1ccccc1-c1ccc(C)cc1 [Compound I-69]	167.5 to 169.5 °C	0.033 µM
CCc1c(C(=O)C(N)=O)c2c(OCC(=O)O)nc(C)cn2c1Cc1ccccc1-c1ccc(C)cc1 [Compound I-70]	179.5 to 181.5 °C	0.005 µM

SMILES	melting point	IC50 [1]
CCc1c(C(=O)C(N)=O)c2c(OCC(=O)OC)nc(C)cn2c1Cc1ccccc1C(=O)c1ccccc1 [Compound I-71]	190 to 192 °C	0.901 µM
CCc1c(C(=O)C(N)=O)c2c(OCC(=O)O)nc(C)cn2c1Cc1ccccc1C(=O)c1ccccc1 [Compound I-72]	131 to 133 °C	0.013 µM
CCc1c(C(=O)C(N)=O)c2c(OCC(=O)OC)nc(C)cn2c1Cc1ccccc1CCc1ccccc1 [Compound I-73]	215 to 217 °C	0.129 µM
CCc1c(C(=O)C(N)=O)c2c(OCC(=O)O)nc(C)cn2c1Cc1ccccc1CCc1ccccc1 [Compound I-74]	189 to 191 °C	0.006 µM
COC(=O)COc1nc(C)cn2c(Cc3ccccc3)c(C3CC3)c(C(=O)C(N)=O)c12 [Compound I-75]	210 to 211.5 °C	1.46 µM
Cc1cn2c(Cc3ccccc3)c(C3CC3)c(C(=O)C(N)=O)c2c(OCC(=O)O)n1 [Compound I-76]	194.5 to 196 °C	0.029 µM
COC(=O)COc1nc(C)cn2c(Cc3ccc(F)cc3)c(C3CC3)c(C(=O)C(N)=O)c12 [Compound I-77]	179 to 182.5 °C	1.38 µM
Cc1cn2c(Cc3ccc(F)cc3)c(C3CC3)c(C(=O)C(N)=O)c2c(OCC(=O)O)n1 [Compound I-78]	185 to 187 °C	0.06 µM
CCc1c(C(=O)C(N)=O)c2c(OCC(=O)OC)nc(C3CCCCC3)cn2c1Cc1ccccc1 [Compound I-79]	193 to 194 °C	0.062 µM
CCc1c(C(=O)C(N)=O)c2c(OCC(=O)O)nc(C3CCCCC3)cn2c1Cc1ccccc1 [Compound I-80]	227 to 230 °C	0.006 µM
CCc1c(C(=O)C(N)=O)c2c(OCC(=O)OC)nc(C3CCCCC3)cn2c1Cc1ccccc1-c1ccccc1 [Compound I-81]	161.5 to 162.5 °C	0.201 µM
CCc1c(C(=O)C(N)=O)c2c(OCC(=O)O)nc(C3CCCCC3)cn2c1Cc1ccccc1-c1ccccc1 [Compound I-82]	200 to 201.5 °C	0.005 µM
COC(=O)COc1nc(C)cn2c(Cc3ccccc3)c(C)c(C(=O)C(N)=O)c12 [Compound I-83]	205 to 207 °C	0.116 µM
Cc1cn2c(Cc3ccccc3)c(C)c(C(=O)C(N)=O)c2c(OCC(=O)O)n1 [Compound I-84]	199.5 to 201 °C	0.008 µM
CCc1c(C(=O)C(N)=O)c2c(OCC(=O)OC)nc(C)cn2c1Cc1ccc(C)s1 [Compound I-85]	203 to 204 °C	0.37 µM
CCc1c(C(=O)C(N)=O)c2c(OCC(=O)O)nc(C)cn2c1Cc1ccc(C)s1 [Compound I-86]	216.5 to 218 °C	0.011 µM
CCc1c(C(=O)C(N)=O)c2c(OCC(=O)OC)nc(C)cn2c1Cc1csc2ccccc12 [Compound I-87]	186 to 187 °C	0.129 µM
CCc1c(C(=O)C(N)=O)c2c(OCC(=O)O)nc(C)cn2c1Cc1csc2ccccc12 [Compound I-88]	211 to 213 °C	0.008 µM
CCOC(=O)COc1nc(C)cn2c(Cc3ccc(F)cc3)c(CC)c(C(=O)C(N)=O)c12 [Compound I-89]	184 to 186 °C	0.315 µM
CCOC(=O)COc1nc(C)cn2c(Cc3ccccc3-c3ccc(F)cc3)c(CC)c(C(=O)C(N)=O)c12 [Compound I-90]	172 to 173 °C	0.038 µM
CCOC(=O)COc1nc(C)cn2c(Cc3ccccc3-c3cccs3)c(CC)c(C(=O)C(N)=O)c12 [Compound I-91]	160 to 161 °C	0.048 µM
CCOC(=O)COc1nc(C)cn2c(Cc3ccccc3-c3ccsc3)c(CC)c(C(=O)C(N)=O)c12 [Compound I-92]	185 to 186 °C	0.076 µM
CCCOC(=O)COc1nc(C)cn2c(Cc3ccc(F)cc3)c(CC)c(C(=O)C(N)=O)c12 [Compound I-93]	182 to 183 °C	0.282 µM
